Data: US11498943B2, “Amyloid inhibitory peptides” (TECHNISCHE UNIVERSITÄT MÜNCHEN, priority 2018, dated 2022)
Where a SMILES comes first, the peptide text is derived from it. [ ]: non-standard residue; d: D form. NMeI = CC[C@H](C)[C@H](NC)C(=O)O; Sar = CNCC(=O)O

Legend:
Aβ40 [1] = target: T1, Aβ40 (Homo sapiens, UniProt P05067); details: Aβ40 500 nM; value marked with literature reference [5]; read-out: IC50 (±SD) (nM) Aβ40 inhibition; cited from earlier work
T1 construct: Aβ40 (TFA salt) was synthesized by Fmoc-based solid phase synthesis (SPPS); made in house; host or cells: chemical synthesis (Fmoc SPPS on Tentagel R PHB resin)
T1 sequence (P05067 672-711): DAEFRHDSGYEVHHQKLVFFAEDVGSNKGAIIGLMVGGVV

Aβ40 [2] = target: T1, Aβ40; details: as previously found; cited from earlier work
IAPP [3] = target: T2, IAPP (Homo sapiens, UniProt P10997); test: IAPP fibrillogenesis by ThT binding, confirmed by TEM, with cell damage by MTT reduction; format: biochemical; parameters: IAPP was synthesized by SPPS and the Fmoc-strategy on RINK resin, subjected to air oxidation and purified by RP-HPLC; made in house; host or cells: chemical synthesis (Fmoc SPPS on RINK resin, air oxidation); details: IAPP 6 μM, MTT in RIN5fm cells
T2 sequence (P10997 34-70 limits assumed): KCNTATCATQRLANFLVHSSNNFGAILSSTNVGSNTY
Description: (§1) Thioflavin T (ThT) Binding Assays
(§2) At indicated time points, aliquots were gently mixed with a ThT solution (20 μM ThT in 0.05 M glycine/NaOH, pH 8.5); ThT binding was determined immediately by measuring fluorescence emission at 486 nm upon excitation at 450 nm using a 2030 Multilabel Reader VictorX3 (PerkinElmer Life Sciences). Effects of peptides added at specific pre- and post-nucleation time points of Aβ40 amyloidogenesis were studied by adding aliquots of Aβ40 solutions (16.5 μM; incubation conditions as above) aged for the indicated time points to the peptide (in dry form) as previously described and ThT binding was determined as above.
(§3) 10 μl aliquots of solutions of the ThT binding and MTT assays were applied on carbon-coated grids at indicated time points, washed with distilled water and stained with aqueous 2% (w/v) uranyl acetate as described. Grids were examined using a JEOL JEM 100CX (at 100 kV) or a JEOL 1400 Nus electron microscope (at 120 kV).
(§4) Both cell lines were cultured and plated in 96-well plates as described. […] Following incubation with the cells for ˜20 h (37° C., humidified atmosphere with 5% CO2), the MTT reduction assay was used to assess cell damage/metabolic activity as previously described.

IAPP [4] = target: T2, IAPP; parameters: IAPP was synthesized by SPPS and the Fmoc-strategy on RINK resin, subjected to air oxidation and purified by RP-HPLC; made in house; host or cells: chemical synthesis (Fmoc SPPS on RINK resin, air oxidation); details: as previously found; cited from earlier work
Aβ40 [5] = target: T1, Aβ40; test: Aβ40 fibrillogenesis by ThT binding, confirmed by TEM, with cell damage by MTT reduction; format: biochemical; details: Aβ40 16.5 μM, MTT in PC12 cells
Description: as §1, §2, §3, §4

[6] = Peptide stability in human plasma (in vitro); format: in vitro ADME; details: human blood plasma, 200 μM peptide, 37° C., read-out: t1/2 in human plasma
Description: Peptide Stability in Human Plasma (In Vitro)
Peptides were dissolved in human blood plasma (obtained from voluntary healthy donors) at a concentration of 200 μM and incubated at 37° C. for various time intervals. Following quenching (1/1) with aqueous trichloroacetic acid (10%), solutions were incubated on ice for 10 min, subjected to centrifugation to precipitate plasma proteins (20200 g; 4 min), and the supernatants were mixed (1/2) with a solution consisting of 80% HPLC buffer B and 20% HPLC buffer A (see below). To quantify intact peptide at different time points, solutions containing the supernatants were analyzed by RP-HPLC (detection at 214 nm) by using a Nucleosil 100 C18 column (Grace) (length 33 mm length, ID 8 mm, 7 μm particle size) with a flow rate of 2.0 ml/min and eluting buffers A, 0.058% (v/v) TFA in water, and B, 0.05% (v/v) TFA in 90% (v/v) CH3CN in water. The elution gradient was 10-90% B in A over 8 min; this step was followed by a 90-10% B in A over 3 min step to establish starting conditions. HPLC fractions were collected, lyophilized, and analyzed by MALDI-TOF-MS using a Bruker Daltonik MALDI-TOF MS instrument.

CC[C@H](C)[C@@H](C(=O)N[C@@H](CC(C)C)C(=O)N[C@@H](CO)C(N)=O)N(C)C(=O)[C@H](C)NC(=O)CN(C)C(=O)[C@H](Cc1ccccc1)NC(=O)[C@H](CC(N)=O)NC(=O)[C@H](CCCNC(=N)N)NC(=O)[C@H](CCCNC(=N)N)NC(=O)[C@H](CCCNC(=N)N)NC(=O)[C@H](Cc1c[nH]cn1)NC(=O)[C@@H](NC(=O)[C@H](CC(C)C)NC(=O)[C@H](Cc1ccccc1)NC(=O)[C@H](CC(N)=O)NC(=O)[C@H](C)NC(=O)[C@H](CC(C)C)NC(=O)[C@H](CCCNC(=N)N)NC(=O)[C@H](CCC(N)=O)NC(=O)[C@@H](NC(=O)[C@H](C)N)[C@@H](C)O)C(C)C [R3-GI (1)] (H-ATQRLANFLVHRRRNF[Sar]A[NMeI]LS-NH2; N-terminus assumed)
IC50 (Aβ40 [1]): 116 nM | app. Kd of interaction with fluorescently labeled Aβ40 (Aβ40 [2]): mid-nanomolar | Effect on amyloid self-assembly and cell damage by IAPP (IAPP [3]): not IAPP amyloidogenesis | app. Kd of interaction with fluorescently labeled IAPP (IAPP [4]): mid-nanomolar | Effect on amyloid self-assembly and cell-damaging effects of Aβ40 (Aβ40 [5]): able to inhibit | half-life at 200 μM [6]: ~20 min
